Reference: patent publication US8835644B2, “Broad spectrum benzothiophene-nitrothiazolide and other antimicrobials” (University of Virginia Patent Foundation, priority 2009, dated 2014)
Values after ≈ are worked out from the molar mass of the structure shown. Where a name gives a salt, the structure may show the parent alone. Read-outs that look alike come from different tables or passages of the source.

What was measured:
[1] = tested on: H. pylori; test: MIC testing by broth dilution, H. pylori; type: cell-based, Helicobacter pylori; settings: 24 h, read-out: MIC (μM) H. pylori
Method: (§1) A standard broth dilution protocol was used in 96 well microplates containing a standard dilution of the microorganism to be tested in 100 microliters of the appropriate medium. Appropriate medium: E. coli, LB medium; Staphylococcus strains, Trypticase Soy; and for H. pylori and C. jejuni, Brain Heart Infusion. The compounds to be tested were set at 32 μg/ml in 200 microliters in well one and then serially diluted to provide a range from 32 to 0.06. The wells were scored visually at 24 h. The well where there was no growth was recorded as the MIC. Clostridium difficile was tested by agar diffusion and disk diffusion (Kirby Bower) methods under anaerobic conditions on Wilkins Chalgrin agar. In these assays, zone of inhibited growth was measured and compared by relative ratio to the zone recorded for NTZ.
(§2) Representative compounds of the invention were tested in a series of assays against a series of organisms as described above. […] The organisms tested include, C. difficile, H. pylori, C. jejuni, MRSA, S. epidermidis, and E. coli. S. epidermidis and E. coli were tested in the plank and biofilm assay. A disk diffusion assay was also used for C. difficile. Direct PFOR enzyme assays were also performed. All analogues and derivatives were not tested on every organism in every type of assay (the “-” in each table means that it was not tested).

[2] = tested on: C. jejuni; test: MIC testing by broth dilution, C. jejuni; type: cell-based, Campylobacter jejuni; settings: 24 h, read-out: MIC (μM) C. jejuni
Method: as §1, §2

[3] = tested on: MRSA; test: MIC testing by broth dilution, MRSA; type: cell-based, Staphylococcus aureus; settings: 24 h, read-out: MIC (μM) MRSA
Method: as §1, §2

[4] = tested on: S. epidermidis; test: MIC testing by broth dilution, S. epidermidis plank; type: cell-based, Staphylococcus epidermidis; settings: 24 h, read-out: MIC (μM) S. epidermidis Plank
Method: as §1, §2

[5] = tested on: S. epidermidis biofilm; test: S. epidermidis biofilm assay (activity tables); type: cell-based, Staphylococcus epidermidis
Method: Staphylococcal strains were cultured overnight in TSB at 37° C. with shaking, diluted in fresh medium to an OD600 of 0.01 and 200 W was dispensed into sterile flat bottom polystyrene 96 well microtiter plates (Costar 3596, Corning Inc.). […] Each compound and dilution was tested in triplicate. The plates were incubated overnight at 37° C. in a humidified incubator, without shaking and both growth and biofilm accumulation were determined at 16 h.
Following recording of turbidities, the culture medium was aspirated and the wells were washed three times with distilled water, blotted on paper towels, and fixed with 75% ethanol for 10 minutes.
To visualize biofilm material, 0.5% crystal violet was added to each well and after 5 minutes was removed and the wells washed three times with distilled water. Plates were read using a microplate reader at a wavelength of 570 nm. The dye was then extracted by adding 200 W of 95% ethanol, and the absorbance was read again at 570 nm. All assays were performed in triplicate and the mean and standard deviation determined. […]
as §2

[6] = tested on: E. coli; test: MIC testing by broth dilution, E. coli plank; type: cell-based, Escherichia coli; settings: 24 h, read-out: MIC (μM) E. coli Plank
Method: as §1, §2

[7] = tested on: E. coli biofilm; test: E. coli biofilm assay (activity tables); type: cell-based, Escherichia coli; settings: read-out: MIC (μM) E. coli Biofilm
Method: A quantitative biofilm assay was used to determine the effect of NTZ on biofilm formation (41). Strain 042 was grown overnight at 37° C. with shaking and inoculated 1:100 in 200 μl culture medium in Costar 96-well, flat-bottom, polystyrene microtiter plates containing appropriate concentrations of NTZ. Plates were incubated statically at 37° C. in a humidified incubator. At 24 h, bacterial growth was measured by either transferring […] aliquots to another microtiter plate to determine turbidity or by diluting 100 μl aliquots 1:100 in 9.9 ml PBS for quantitative plate counts on LB medium. Bacterial counts in triplicate are reported as cfu/ml. Biofilm was visualized following staining with 0.5% crystal violet (41) and the absorbance was read at 570 nm using a microplate reader (Molecular Dynamics). All experiments were in triplicate and reported as mean and standard deviation.
as §1, §2

[8] = tested on: C. difficile; test: Disk diffusion (Kirby Bower), C. difficile; type: cell-based, Clostridium difficile; settings: zone of inhibited growth as relative ratio to the zone for NTZ
Method: as §1, §2

[9] = broth dilution, Brain Heart Infusion

Compound | MIC [1, 9] [µM] | MIC [2, 9] [µM] | MIC ([3]; broth dilution, Trypticase Soy) [µM] | MIC ([4]; broth dilution, Trypticase Soy) [µM] | MIC (μM) S. epidermidis Biofilm [5] [µM] | MIC ([6]; broth dilution, LB medium) [µM] | MIC ([7]; biofilm) [µM] | Disk Diffusion (%) C. difficile [8] [%] | MIC ([1]; Helicobacter pylori) [µM] | MIC ([2]; Campylobacter jejuni) [µM] | MIC ([3]; Staphylococcus aureus, MRSA) [µM] | MIC ([4]; Staphylococcus epidermidis) [µM] | MIC ([6]; Escherichia coli) [µM] | MIC ([7]; Escherichia coli) [µM]
CC1=C(C(=O)Nc2ncc([N+](=O)[O-])s2)Cc2ccccc21 [VPC16a1018] | 0.7 (≈ 0.211 µg/mL) | 10.7 (≈ 3.22 µg/mL) | 106.2 (≈ 32 µg/mL) | 106.2 (≈ 32 µg/mL) | 26.5 (≈ 7.99 µg/mL) | 106.2 (≈ 32 µg/mL) | 53.1 (≈ 16 µg/mL) |  |  |  |  |  |  | 
O=C(CCCc1ccccc1)Nc1ncc([N+](=O)[O-])s1 [VPC16a1020] | 13.8 (≈ 4.02 µg/mL) | 2.6 (≈ 0.757 µg/mL) | 109.8 (≈ 32 µg/mL) | 109.8 (≈ 32 µg/mL) |  | 109.8 (≈ 32 µg/mL) | 54.9 (≈ 16 µg/mL) | 33 ± 3 |  |  |  |  |  | 
Cl.N[C@H](C(=O)Nc1ncc([N+](=O)[O-])s1)c1ccccc1 [VPC16a1027] | 76.3 | 38.1 | 101.7 | 101.7 | 101.7 | 101.7 | 25.4 |  |  |  |  |  |  | 
N[C@@H](Cc1ccccc1)C(=O)Nc1ncc([N+](=O)[O-])s1 [VPC16a1028, (S)-2-Amino-N-(5-nitrothiazol-2-yl)-3-phenylpropanamide hydrochloride] |  |  |  |  | 97.3 |  |  |  | 18.3 | 36.5 | 97.3 | 97.3 | 97.3 | 48.7
NCCCC[C@H](N)C(=O)Nc1ncc([N+](=O)[O-])s1 [VPC16a1032] | 69.3 (≈ 18.9 µg/mL) | 92.4 (≈ 25.3 µg/mL) | 92.4 (≈ 25.3 µg/mL) | 92.4 (≈ 25.3 µg/mL) | 92.4 (≈ 25.3 µg/mL) | 92.4 (≈ 25.3 µg/mL) | 0.1 (≈ 0.0273 µg/mL) |  |  |  |  |  |  | 
CC(=O)Nc1ncc([N+](=O)[O-])s1 [VPC16a1033] | 3.5 (≈ 0.655 µg/mL) | 14.0 (≈ 2.62 µg/mL) | 171.0 (≈ 32 µg/mL) | 21.4 (≈ 4.01 µg/mL) | 21.4 (≈ 4.01 µg/mL) | 42.7 (≈ 7.99 µg/mL) | 42.7 (≈ 7.99 µg/mL) |  |  |  |  |  |  | 
O=C(CCc1ccccc1)Nc1ncc([N+](=O)[O-])s1 [VPC16b1030] | 0.3 (≈ 0.0832 µg/mL) | 1.30 (≈ 0.36 µg/mL) | 115.4 (≈ 32 µg/mL) | 14.4 (≈ 3.99 µg/mL) |  | 115.4 (≈ 32 µg/mL) | 50.5 (≈ 14 µg/mL) | 54.5 ± 0.5 |  |  |  |  |  | 
CCCCCCCCCC(=O)Nc1ncc([N+](=O)[O-])s1 [VPC16b1043] | 1.2 (≈ 0.359 µg/mL) | 3.9 (≈ 1.17 µg/mL) | 106.9 (≈ 32 µg/mL) | 106.9 (≈ 32 µg/mL) | 1.7 (≈ 0.509 µg/mL) | 106.9 (≈ 32 µg/mL) | 106.9 (≈ 32 µg/mL) |  |  |  |  |  |  | 
CCCC(=O)Nc1ncc([N+](=O)[O-])s1 [VPC16b1045] | 0.5 (≈ 0.108 µg/mL) | 2.1 (≈ 0.452 µg/mL) | 148.7 (≈ 32 µg/mL) | 37.2 (≈ 8.01 µg/mL) | 4.6 (≈ 0.99 µg/mL) | 148.7 (≈ 32 µg/mL) | 148.7 (≈ 32 µg/mL) |  |  |  |  |  |  | 
CC(C)(C(=O)Nc1ncc([N+](=O)[O-])s1)C(=O)Nc1ncc([N+](=O)[O-])s1 [VPC16b1048] | 20.7 (≈ 8 µg/mL) | 82.8 (≈ 32 µg/mL) | 82.8 (≈ 32 µg/mL) | 82.8 (≈ 32 µg/mL) | 41.4 (≈ 16 µg/mL) | 82.8 (≈ 32 µg/mL) | 82.8 (≈ 32 µg/mL) |  |  |  |  |  |  | 
CC(=O)Oc1cc(C#N)ccc1C(=O)Nc1ncc([N+](=O)[O-])s1 [VPC161076] | 24.1 (≈ 8.01 µg/mL) | 96.3 (≈ 32 µg/mL) | 96.3 (≈ 32 µg/mL) | 96.3 (≈ 32 µg/mL) | 48.2 (≈ 16 µg/mL) | 96.3 (≈ 32 µg/mL) | 96.3 (≈ 32 µg/mL) |  |  |  |  |  |  | 
O=C(Nc1ncc([N+](=O)[O-])s1)c1cccc([N+](=O)[O-])c1O [VPC161090] | 19.3 (≈ 5.99 µg/mL) | 103.1 (≈ 32 µg/mL) | 103.1 (≈ 32 µg/mL) | 77.4 (≈ 24 µg/mL) | 6.4 (≈ 1.99 µg/mL) | 103.1 (≈ 32 µg/mL) | 103.1 (≈ 32 µg/mL) |  |  |  |  |  |  | 
O=C(Nc1ncc([N+](=O)[O-])s1)c1ccc(F)cc1C(F)(F)F [VPC161127] | 3.4 (≈ 1.14 µg/mL) | 23.9 (≈ 8.01 µg/mL) | 8.9 (≈ 2.98 µg/mL) | 23.9 (≈ 8.01 µg/mL) | 13.4 (≈ 4.49 µg/mL) | 95.5 (≈ 32 µg/mL) | 95.5 (≈ 32 µg/mL) |  |  |  |  |  |  | 
O=C(Nc1ncc([N+](=O)[O-])s1)c1cccc(F)c1 [VPC161166] | 0.9 (≈ 0.241 µg/mL) | 11.2 (≈ 2.99 µg/mL) | 16.8 (≈ 4.49 µg/mL) | 22.5 (≈ 6.01 µg/mL) | 59.9 (≈ 16 µg/mL) | 119.7 (≈ 32 µg/mL) | 59.9 (≈ 16 µg/mL) |  |  |  |  |  |  | 
O=C(Nc1ncc([N+](=O)[O-])s1)c1ccc([N+](=O)[O-])cc1 [VPC161170] | 1.3 (≈ 0.383 µg/mL) | 13.6 (≈ 4 µg/mL) | 20.4 (≈ 6 µg/mL) | 10.2 (≈ 3 µg/mL) | 3.4 (≈ 1 µg/mL) | 81.6 (≈ 24 µg/mL) | 108.8 (≈ 32 µg/mL) |  |  |  |  |  |  | 
COc1ccc(-c2ccc(F)cc2F)cc1C(=O)Nc1ncc([N+](=O)[O-])s1 [VPC161171] | 0.8 (≈ 0.313 µg/mL) | 40.9 (≈ 16 µg/mL) | 81.8 (≈ 32 µg/mL) | 81.8 (≈ 32 µg/mL) | 81.8 (≈ 32 µg/mL) | 81.8 (≈ 32 µg/mL) | 81.8 (≈ 32 µg/mL) |  |  |  |  |  |  | 
N#Cc1cccc(C(=O)Nc2ncc([N+](=O)[O-])s2)c1 [VPC161173] | 4.1 (≈ 1.12 µg/mL) | 36.5 (≈ 10 µg/mL) | 43.8 (≈ 12 µg/mL) | 29.2 (≈ 8.01 µg/mL) | 58.3 (≈ 16 µg/mL) | 116.7 (≈ 32 µg/mL) | 116.7 (≈ 32 µg/mL) |  |  |  |  |  |  | 
O=C(O)CCCC(=O)Nc1ncc([N+](=O)[O-])s1 [VPC161273] | 5.8 (≈ 1.5 µg/mL) | 123.4 (≈ 32 µg/mL) | 123.4 (≈ 32 µg/mL) |  | 123.4 (≈ 32 µg/mL) | 123.4 (≈ 32 µg/mL) | 61.7 (≈ 16 µg/mL) |  |  |  |  |  |  | 
CC(C)(C)OC(=O)N1CCC(C(=O)NCCOc2ccccc2C(=O)Nc2ncc([N+](=O)[O-])s2)CC1 [VPC162059] | 0.7 (≈ 0.364 µg/mL) | 61.6 (≈ 32 µg/mL) | 61.6 (≈ 32 µg/mL) | 61.6 (≈ 32 µg/mL) |  | 61.6 (≈ 32 µg/mL) |  | 38 |  |  |  |  |  | 
Cl.NCCCCOc1ccccc1C(=O)Nc1ncc([N+](=O)[O-])s1 [VPC162096HCl] | 2.0 | 5.4 | 85.8 | 42.9 |  | 85.8 |  | 111 |  |  |  |  |  | 
NCCCCOc1ccccc1C(=O)Nc1ncc([N+](=O)[O-])s1.O=C(O)C(F)(F)F [VPC162096TFA] | 1.7 | 6.7 | 71.0 | 35.5 |  | 71.0 |  | 111 |  |  |  |  |  | 
Cl.NCCCOc1ccccc1C(=O)Nc1ncc([N+](=O)[O-])s1 [VPC162102HCl] | 1.0 | 8.4 | 89.2 | 44.6 |  | 89.2 |  | 74 |  |  |  |  |  | 
NCCCOc1ccccc1C(=O)Nc1ncc([N+](=O)[O-])s1.O=C(O)C(F)(F)F [VPC162102TFA] | 0.9 | 13.8 | 73.3 | 73.3 |  | 73.3 |  | 79 |  |  |  |  |  | 
